This note sets out measurements from ChEMBL document CHEMBL3797119, “Pharmacokinetic Study of Two Macrolide Antibiotic Oral Suspensions Using an Optimized Bioassay Procedure” (J Bioequivalence Bioavailab, 2010).

What all share (type): ADME, organism-based
Common to all, as to settings: in vivo

The subject of series [1] is Homo sapiens. In words: First order inter-compartment transfer rate constant from peripheral to central compartment in healthy human (24 volunteers) at 500 mg, po test formulation of drug administered as single dose by two-compartmental open model.
The nature of series [2]: AUC (0 to infinity) in healthy human (24 volunteers) at 500 mg, po test formulation of drug administered as single dose measured after 0.5 to 72 hrs. Details: dose 500 mg, route oral, time infinity.
Series [3] in a line: Elimination rate constant from central compartment in healthy human (24 volunteers) at 500 mg, po reference formulation of drug administered as single dose by two-compartmental open model.
The nature of series [4]: Cmax in healthy human (24 volunteers) at 500 mg, po reference formulation of drug administered as single dose measured after 0.5 to 72 hrs. Details: dose 500 mg, route oral.
Series [5] relates to Homo sapiens. In words: Ratio of AUC (0 to infinity) in healthy human (24 volunteers) at 500 mg, po test formulation of drug administered as single dose to AUC (0 to t) in healthy human (24 volunteers) at 500 mg, po reference formulation of drug administered as single dose.
Series [6] has as its system Homo sapiens. Description: Volume of distribution in healthy human (24 volunteers) at 500 mg, po reference formulation of drug administered as single dose by two-compartmental open model.
Series [7] can be described thus: Clearance in healthy human (24 volunteers) at 500 mg, po test formulation of drug administered as single dose by two-compartmental open model.
A short description of series [8]: Clearance in healthy human (24 volunteers) at 500 mg, po reference formulation of drug administered as single dose by two-compartmental open model.
The nature of series [9]: AUC (0 to t) in healthy human (24 volunteers) at 500 mg, po test formulation of drug administered as single dose measured after 0.5 to 72 hrs. More on the design: time upper 72 hr, time lower 0.5 hr, dose 500 mg, route oral.
Series [10] can be described thus: Tmax in healthy human (24 volunteers) at 500 mg, po reference formulation of drug administered as single dose.
Series [11] has as its system Homo sapiens. Description: First order inter-compartment transfer rate constant from peripheral to central compartment in healthy human (24 volunteers) at 500 mg, po reference formulation of drug administered as single dose by two-compartmental open model.
In series [12] the test system is Homo sapiens. In words: First order inter-compartment transfer rate constant from central to peripheral compartment in healthy human (24 volunteers) at 500 mg, po test formulation of drug administered as single dose by two-compartmental open model.
Series [13] can be described thus: Tmax in healthy human (24 volunteers) at 500 mg, po test formulation of drug administered as single dose.
Series [14] concerns Homo sapiens. Description: Volume of distribution in healthy human (24 volunteers) at 500 mg, po test formulation of drug administered as single dose by two-compartmental open model.
The test system of series [15] is Homo sapiens. Description: Ratio of AUC (0 to t) in healthy human (24 volunteers) at 500 mg, po test formulation of drug administered as single dose to AUC (0 to t) in healthy human (24 volunteers) at 500 mg, po reference formulation of drug administered as single dose.
A short description of series [16]: Half life in healthy human (24 volunteers) at 500 mg, po test formulation of drug administered as single dose.
The subject of series [17] is Homo sapiens. Description: Ratio of Cmax in healthy human (24 volunteers) at 500 mg, po test formulation of drug administered as single dose to Cmax in healthy human (24 volunteers) at 500 mg, po reference formulation of drug administered as single dose.
Series [18] is described as follows: AUC (0 to t) in healthy human (24 volunteers) at 500 mg, po reference formulation of drug administered as single dose measured after 0.5 to 72 hrs. More on the design: time upper 72 hr, dose 500 mg, time lower 0.5 hr, route oral.
The nature of series [19]: Elimination rate constant from central compartment in healthy human (24 volunteers) at 500 mg, po test formulation of drug administered as single dose by two-compartmental open model.
Series [20] deals with Homo sapiens. Description: First order inter-compartment transfer rate constant from central to peripheral compartment in healthy human (24 volunteers) at 500 mg, po reference formulation of drug administered as single dose by two-compartmental open model.
Series [21] is described as follows: Cmax in healthy human (24 volunteers) at 500 mg, po test formulation of drug administered as single dose measured after 0.5 to 72 hrs. Details: dose 500 mg, route oral.
Series [22] in a line: AUC (0 to infinity) in healthy human (24 volunteers) at 500 mg, po reference formulation of drug administered as single dose measured after 0.5 to 72 hrs. Details: dose 500 mg, time infinity, route oral.
Series [23] is described as follows: Half life in healthy human (24 volunteers) at 500 mg, po reference formulation of drug administered as single dose.
The test system of series [24] is Homo sapiens. Description: Volume of distribution in healthy human (24 volunteers) at 400 mg, po test formulation of drug administered as single dose by two-compartmental open model.
The nature of series [25]: Elimination rate constant from central compartment in healthy human (24 volunteers) at 400 mg, po reference formulation of drug administered as single dose by two-compartmental open model.
Series [26] relates to Homo sapiens. In words: Volume of distribution in healthy human (24 volunteers) at 400 mg, po reference formulation of drug administered as single dose by two-compartmental open model.
Series [27] in a line: AUC (0 to infinity) in healthy human (24 volunteers) at 400 mg, po reference formulation of drug administered as single dose measured after 0.5 to 10 hrs. Details: dose 400 mg, route oral, time infinity.
Series [28] can be described thus: Clearance in healthy human (24 volunteers) at 400 mg, po reference formulation of drug administered as single dose by two-compartmental open model.
Series [29] is described as follows: Cmax in healthy human (24 volunteers) at 400 mg, po test formulation of drug administered as single dose measured after 0.5 to 10 hrs. Details: dose 400 mg, route oral.
For series [30], the system named is Homo sapiens. Description: First order inter-compartment transfer rate constant from peripheral to central compartment in healthy human (24 volunteers) at 400 mg, po test formulation of drug administered as single dose by two-compartmental open model.
Series [31] can be described thus: Tmax in healthy human (24 volunteers) at 400 mg, po reference formulation of drug administered as single dose.
The subject of series [32] is Homo sapiens. In words: Ratio of Cmax in healthy human (24 volunteers) at 400 mg, po test formulation of drug administered as single dose to Cmax in healthy human (24 volunteers) at 400 mg, po reference formulation of drug administered as single dose.
Series [33] deals with Homo sapiens. In words: First order inter-compartment transfer rate constant from central to peripheral compartment in healthy human (24 volunteers) at 400 mg, po reference formulation of drug administered as single dose by two-compartmental open model.
Series [34] can be described thus: Cmax in healthy human (24 volunteers) at 400 mg, po reference formulation of drug administered as single dose measured after 0.5 to 10 hrs. More on the design: dose 400 mg, route oral.
Series [35] can be described thus: Clearance in healthy human (24 volunteers) at 400 mg, po test formulation of drug administered as single dose by two-compartmental open model.
The nature of series [36]: AUC (0 to t) in healthy human (24 volunteers) at 400 mg, po test formulation of drug administered as single dose measured after 0.5 to 10 hrs. Details: time 0.5-10 hr, dose 400 mg, route oral.
Series [37] relates to Homo sapiens. Description: Ratio of AUC (0 to infinity) in healthy human (24 volunteers) at 400 mg, po test formulation of drug administered as single dose to AUC (0 to t) in healthy human (24 volunteers) at 400 mg, po reference formulation of drug administered as single dose.
In series [38] the test system is Homo sapiens. In words: First order inter-compartment transfer rate constant from central to peripheral compartment in healthy human (24 volunteers) at 400 mg, po test formulation of drug administered as single dose by two-compartmental open model.
Series [39] can be described thus: Half life in healthy human (24 volunteers) at 400 mg, po test formulation of drug administered as single dose.
A short description of series [40]: AUC (0 to infinity) in healthy human (24 volunteers) at 400 mg, po test formulation of drug administered as single dose measured after 0.5 to 10 hrs. More on the design: dose 400 mg, time infinity, route oral.
In series [41] the test system is Homo sapiens. Description: First order inter-compartment transfer rate constant from peripheral to central compartment in healthy human (24 volunteers) at 400 mg, po reference formulation of drug administered as single dose by two-compartmental open model.
The nature of series [42]: AUC (0 to t) in healthy human (24 volunteers) at 400 mg, po reference formulation of drug administered as single dose measured after 0.5 to 10 hrs. Details: time lower 0.5 hr, dose 400 mg, time upper 10 hr, route oral.
A short description of series [43]: Elimination rate constant from central compartment in healthy human (24 volunteers) at 400 mg, po test formulation of drug administered as single dose by two-compartmental open model.
The nature of series [44]: Half life in healthy human (24 volunteers) at 400 mg, po reference formulation of drug administered as single dose.
A short description of series [45]: Tmax in healthy human (24 volunteers) at 400 mg, po test formulation of drug administered as single dose.
For series [46], the system named is Homo sapiens. Description: Ratio of AUC (0 to t) in healthy human (24 volunteers) at 400 mg, po test formulation of drug administered as single dose to AUC (0 to t) in healthy human (24 volunteers) at 400 mg, po reference formulation of drug administered as single dose.

Take `CC[C@@H]1OC(=O)[C@H](C)[C@@H](O[C@@H]2C[C@](C)(OC)[C@H](O)[C@@H](C)O2)[C@@H](C)[C@@H](O[C@@H]2O[C@H](C)C[C@H](N(C)C)[C@H]2O)[C@](C)(O)C[C@@H](C)CN(C)[C@H](C)[C@@H](O)[C@]1(C)O`: the K in [1] was found to be 0.084 h⁻¹; in series [11] it was 0.103 h⁻¹; in series [12], 0.419 h⁻¹; in series [20] it was 0.405 h⁻¹. For the same molecule, the figures for the total exposure AUC(0-inf) in series [2] and in series [22] were 7990 ng·h/mL and 8440 ng·h/mL, respectively. Further, the results for the k el in [3] and in [19] were 2.72e-05 s⁻¹ and 2.5e-05 s⁻¹, respectively. Besides, the Cmax came to 488 ng/mL in [4] and 486 ng/mL in [21]. The “Ratio AUC” value in [5] came out at 0.96; in [15], 0.95. Moreover, the Vd in series [6] worked out at 36.8 L/kg; in series [14], 32.2 L/kg. Further, the figures for the apparent clearance (CL/F) in [7] and in series [8] were 139 mL/min/kg and 103 mL/min/kg, respectively. Also, the AUC(0-t) in series [9] was 7580 ng·h/mL; in series [18] it was 8050 ng·h/mL. For the same molecule, the Tmax in series [10] stood at 2.08 h; in series [13] it was 1.96 h. Besides, the figures for the half-life in [16] and in series [23] were 25 h and 25.2 h, respectively. Besides, the Ratio in series [17] is given as 1.

Take `CC[C@H]1OC(=O)[C@H](C)[C@@H](O[C@H]2C[C@@](C)(OC)[C@@H](O)[C@H](C)O2)[C@H](C)[C@@H](O[C@@H]2O[C@H](C)C[C@H](N(C)C)[C@H]2O)[C@](C)(O)C[C@@H](C)C(=O)[C@H](C)[C@@H](O)[C@]1(C)O` [ERYTHROMYCIN]: the values for the Vd in series [24] and in series [26] were 10.4 L/kg and 8.8 L/kg, respectively. For the same molecule, the results for the k el in series [25] and in [43] were 0.000123 s⁻¹ and 0.000229 s⁻¹, respectively. For the same molecule, the results for the area under the curve AUC(0-inf) in [27] and in series [40] were 4790 ng·h/mL and 4850 ng·h/mL, respectively. Further, the values for the CL/F in [28] and in series [35] were 23.3 mL/min/kg and 225 mL/min/kg, respectively. The peak concentration (Cmax) in series [29] was determined as 1170 ng/mL; in series [34] it was 1120 ng/mL. Further, the K came to 0.415 h⁻¹ in series [30], 1.34 h⁻¹ in [33], 2.26 h⁻¹ in series [38] and 1.23 h⁻¹ in series [41]. The time to peak (Tmax) in [31] was determined as 1.38 h; in series [45], 1.4 h. Besides, the Ratio in [32] is 1.07. Further, the AUC(0-t) in series [36] came out at 4020 ng·h/mL; in series [42] it was 4010 ng·h/mL. Besides, the “Ratio AUC” value in series [37] amounted to 1.04; in series [46], 1.03. Moreover, the half-life in [39] was 3.64 h; in series [44], 3.61 h.

In general, AUC(0-inf) refers to the area under the concentration-time curve extrapolated to infinity. Usually Cmax stands for the highest concentration seen after dosing. Broadly, the CL/F is the apparent clearance, not corrected for the fraction that reaches the circulation. Usually AUC(0-t) stands for exposure summed from dosing to a finite time, without extrapolation to infinity. Low readings indicate low exposure, high ones high exposure. For orientation: Tmax means the time from dosing to the highest level. Broadly, the half-life is the time needed for the level to fall by half in the phase considered.
